Test results reported in patent publication US20100092575A1, “Method of making treatment materials and using same to treat algae and/or pests” (priority 2004, published 2010).

Tests used:
[1] = test system: flora and fauna in the water feature; details: previous treatment method of the water hazard
Description: A golf course water hazard in Northern California contained large mats (i.e., growths) of string algae during the summer months. The algae were predominantly confined to the edges of the water body. […] Furthermore, a special permit is needed to apply toxic copper sulfate.

[2] = aqueous; cited from earlier work

| Structure (SMILES) | effect on flora and fauna in the water feature [1] | pH values at which decomposition significantly increases [2] |
| --- | --- | --- |
| O=S(=O)([O-])[O-].[Cu+2] [copper sulfate] | killed most of the flora and fauna |  |
| OO [hydrogen peroxide] |  | greater than 6 |
